Results published in patent publication US20030187028A1, “Medicament for viral diseases” (priority 2000, published 2003).

Experiments:
HepG2.2.15 cells = assay: Cytotoxicity determination in HepG2.2.15 cells; format: cell-based; details: 50% cytotoxicity
Source text: Before harvesting the supernatants and/or cells to determine the antiviral effect, the HepG2.2.15 cells were examined under the light microscope or by means of biochemical detection methods (for example Alamar Blue stain or Trypan Blue stain) for cytotoxic changes.
Substance-induced cytotoxic or cytostatic changes in the HepG2.2.15 cells were detected, for example, under the light microscope as changes in cell morphology. Such substance-induced changes in the HepG2.2.15 cells compared with untreated cells were visible, for example, as cytolysis, vacuolation or altered cell morphology.
The tolerability of some of the compounds according to the invention was additionally tested on other host cells such as, for example, HeLa cells, primary human peripheral blood cells or transformed cell lines such as H-9 cells.
As a rule, the compounds according to the invention were tolerated up to concentrations of 10 μM (Tox. −50).

[1] = tested on: hepatitis B virus-producing HepG2.2.15 cells; assay: Antiviral test: reduction of HBV DNA in HepG2.2.15 cells (dot-blot hybridization); format: cell-based; details: HepG2.2.15, 96 h
Experimental: The antiviral action of the compounds according to the invention was investigated by methods based on those described by M. A. Sells et al., Proc. Natl. Acad. Sci. 84, 1005-1009 (1987) and B. E. Korba et al., Antiviral Research 19, 55-70 (1992).
The antiviral tests were carried out in 96-well microtitre plates. The first vertical row of the plate received only growth medium and HepG2.2.15 cells. It served as virus control.
Stock solutions of the test compounds (50 mM) were initially dissolved in DMSO, and further dilutions were prepared in the HepG2.2.15 growth medium. The compounds according to the invention were usually pipetted in a test concentration of 100 μM (1st test concentration) in each case into the second vertical test row of the microtitre plate and subsequently diluted in twofold steps 2^10 times in growth medium+2% by weight fetal calf serum (volume 25 μl).
Each well of the microtitre plate then contained 225 μl of HepG2.2.15 cell suspension (5×10^4 cells/ml) in growth medium+2% by weight of fetal calf serum.
The test mixture was incubated at 37° C. and 5% CO2 (v/v) for 4 days.
The supernatant was then aspirated off and discarded, and the wells received 225 μl of freshly prepared growth medium. The compounds according to the invention were each added anew as 10-fold concentrated solution in a volume of 25 μl. The mixtures were incubated for a further 4 days.
The supernatants/cells were then harvested and sucked by means of a vacuum onto 96-well dot-blot chambers covered with a nylon membrane (in accordance with the manufacturer's information).
After the supernatants or cells had been transferred to the nylon membrane of the blot apparatus (see above), the supernatants of the HepG2.2.15 cells were denatured (1.5 M NaCl/0.5 N NaOH), neutralized (3M NaCl/0.5M Tris HCl, pH 7.5) and washed (2×SSC). The DNA was then baked onto the membrane by incubating the filters at 120° C. for 2-4 hours.
Detection of the viral DNA from the treated HepG2.2.15 cells on the nylon filters was easily carried out with non-radioactive, digoxigenin-labelled hepatitis B-specific DNA probes, each of which was labelled with digoxigenin, purified and employed for the hybridization in accordance with the manufacturer's information.
The prehybridization and hybridization took place in 5×SSC, 1× blocking reagent, 0.1% by weight N-lauroylsarcosine, 0.02% by weight SDS and 100 μg of herring sperm DNA. The prehybridization took place at 60° C. for 30 minutes, and the specific hybridization with 20 to 40 ng/ml of the digoxigenized, denatured HBV-specific DNA took place at 60° C. for 14 hours. The filters were then washed.
The immunological detection of the digoxigenin-labelled DNA took place in accordance with the manufacturer's information:
The filters were washed and prehybridized in a blocking reagent (in accordance with the manufacturer's information). Hybridization was then carried out with an anti-DIG antibody coupled to alkaline phosphatase for 30 minutes. After a washing step, the substrate of alkaline phosphatase, CSPD, was added, incubated with the filters for 5 minutes, then packed in plastic film and incubated at 37° C. for a further 15 minutes.
The chemiluminescence of the hepatitis B-specific DNA signals was visualized by exposing the filters to an X-ray film (incubation depending on signal strength: 10 minutes to 2 hours).
The half-maximum inhibitory concentration (IC-50, 50% inhibitory concentration) was determined as the concentration at which the hepatitis B-specific band was reduced by the compound according to the invention by 50% compared with an untreated sample.

Structure (SMILES)	Tox-50 (HepG2.2.15 cells)	IC50 [1]
Cc1cc(NC(=O)c2c(C)noc2C)ccc1F [Example 2, N-(4-Fluoro-3-methylphenyl)-3,5-dimethylisoxazole-4-carboxamide]	>100 μM/l	200 nM
CCc1onc(C)c1C(=O)Nc1ccc(F)c(Cl)c1 [Example 12]	>100 μM/l	500 nM
Cc1cc(NC(=O)c2c(C)noc2C(F)(F)F)ccc1F [Example 16]	>100 μM/l	750 nM
CCCc1onc(C)c1C(=O)Nc1cccc(C)c1 [Example 21]	>100 μM/l	1000 nM
Cc1cccc(NC(=S)c2c(C)noc2C)c1 [Example 29]	>100 μM/l	4000 nM
Cc1oncc1C(=O)Nc1ccc(C(F)(F)F)cc1 [Leflunamide, N-(4-trifluoromethylphenyl)-5-methylisoxazole-4-carboxamide, reference compound]	70 μM/l	> 70000 nM
